Consider three molecules from US20070098735A1, “Methods for the Elimination of Pathogens and Other Particulate Agents” (priority 2005, published 2007).

For one assay, the system named is RAW 264.7 macrophages. Briefly: In vitro macrophage phagocytosis of wound debris. It counts as cell-based, murine. The note with it: RAW264.7, labeled wound debris.
Assay [1] concerns full thickness wounds of naïve mice. Put plainly: Adoptive transfer of pre-treated RAW 264.7 macrophages into wounded mice, wound closure. Format: in vivo. To be noted: 400,000 macrophages pre-treated at 30 μg/dose; day 2 post surgery. The procedure: Macrophage Cell Culture, Pre-treatment, and Adoptive Transfer. RAW 264.7 macrophages (ATCC) were grown as described by ATCC. Cells were harvested by gently scraping them from the cell culture flasks, centrifuged and washed once in cultured grade PBS. […] They were then washed 3 times with PBS, and were re-suspended to achieve a concentration of 400,000, 40,000, or 4,000 cells per 0.5 ml PBS. Adoptive transfer of these cells was performed by subcutaneous injections in the nape of the neck using a 25-gauge needle in mice that were wounded as previously described. Adoptive transfers were given on days 0, 2 and 4 post-operatively.
Macrophages were treated in vitro with either HSPs or non-HSP controls and transferred into naïve wounded mice (as described in Materials and Methods) to test if HSPs could in part mediate some of their activity through macrophages. […] Data is plotted as average percent wound closure ±SEM on day 2. *P values were obtained using the Student's t-test by comparing HSP treatment to all of the non-HSP control treatments. The least significant P value was reported.
Titratability of adoptive transfer was examined by transferring 4,000, 40,000 or 400,000 macrophages pre-treated as described in Materials and Methods.

For assay [2], the system named is macrophages (TNF-α release). Put plainly: TNF-α release by LPS-treated macrophages in presence or absence of serum. Format: cell-based. The note with it: serum-free conditions. The procedure:
HSP70 used in all assays was purified using LPS-free sterile packaged plastic ware, baked glass ware (420° F. for 4 hours) and using endotoxin-free culture grade reagents to minimize inadvertent LPS contamination. Further, LPS levels and activity in the purified HSPs were quantified and confirmed to be <1 EU/mg of protein. Next, HSPs and LPS were compared for their influence on phagocytosis in presence or absence of serum. These conditions were specifically chosen since LPS-binding protein (LBP), an essential mediator for LPS function, is not present in serum-free conditions. As a control, macrophages were treated with LPS in presence or absence of serum and their ability to elicit TNF-α release was compared (FIG. 3A). […] Briefly, macrophages were treated with HSP70 (100 μg/ml) or LPS (different doses ranging 25 ng-1 μg/ml) in serum-free conditions for 1 hour and a phagocytosis assay was performed. […] The error bar is one standard deviation. The results shown are a cumulative analysis of 3 experiments, 3 wells/group.

Assay [3] has as its system Murine macrophage lines (RAW264.7, J774.A1 or RAW264NO-). Put plainly: Phagocytosis assay in vitro (uptake of Alexa Fluor 488-labeled particles). Format: cell-based. The method, then: Phagocytosis Assay in vitro. RAW 264.7, RAW264.7 (NO-) and J774A.1 cells were cultured in DMEM or RPMI (RAW NO-) with 10% FCS, harvested, and washed. 3×10^5 cells/well were incubated in serum-free Earle's minimal essential medium (EMEM) in a 24-well plate for 1 hour at 37° C. Alexa Fluor® 488-labeled particles (inert polystyrene microspheres; or yeast, Saccharomyces cerevisiae or Gram-negative bacteria, Escherichia coli, 40 particles/macrophage) were added and co-incubated in a dark environment for 60 minutes in serum free EMEM with or without HSPs, LPS, or control proteins. At the end of 60 minutes incubation, the plate was covered in a dark container on ice. Specific measures were taken to exclude the fluorescence that resulted from particles that were outside of the cell or sticking to the surface of the cell. […] Specifically, trypan blue (0.8 mg/ml) was added for 60 seconds and plates were analyzed immediately using FluorImager SI (Molecular Dynamics/Amersham). Since the emission of Alexa Fluor® 488, about 519 nm at an excitation of about 490 nm, falls within the absorbance range of trypan blue (475-675 nm), the fluorescence of the sample only represents the intracellular fluorescence. External or surface-bound fluorescence is quenched. Using Student's t test, the results were analyzed and P-values were calculated.
HSP-mediated phagocytosis was quantified by measuring the internalized fluorescence measured by FluorImager SI and Relative Mean Fluorescence Intensity (RMFI) was compared between the treatment groups (as indicated). All the treatment groups were compared to medium alone using the Student's t test and significance denoted by P<0.01. The error bar represents one standard deviation. The results shown are a cumulative analysis of 3 experiments, 3 wells/group.

Assay [4] has as its system full thickness surgical wounds on the dorsum of BALB/cJ mice. Put plainly: Closure of full thickness surgical wounds, percent wound closure. It counts as in vivo. The procedure: Surgery and Treatment. Mice were anesthetized using Ketamine (2.0 mg/mouse) and Xylazine (0.1 mg/mouse) were administered intraperitoneally (IP) and the dorsal skin was shaved. After sterile prepping of the area, a full thickness circular wound, 8 mm diameter, was made on the dorsal skin using a disposable biopsy punch (Miltex Inc, York, Pa.) on the midline of the dorsum approximately at the iliac crest. The mice were then randomly assigned into the treatment groups. Initial wound measurements were performed while the mice were still anesthetized. Mice were then treated on days 0, 2, 4, and 6 unless otherwise specified. All agents used as treatment were diluted in 0.5 ml of PBS and injected using a 25-gauge needle in the subcutaneous space in the nape of the neck. The surgical procedures, post-operative monitoring, and safety concerns were approved by the Institutional Animal Care and Usage Committee.
Measurements and Analysis. Wound healing of open wounds is a complex process with many parameters to consider. […] The wound surface area was determined by measuring the craniocaudal and lateromedial distances using vernier calipers in perpendicular axis on days 0, 2, 4, 6, 9, and 11 postoperatively unless noted. Changes in wound area were expressed as percent wound closure. Wound closure data was plotted as average percent wound closure ±SEM unless otherwise noted. All calculations and data analysis were performed using Microsoft Excel and Sigma Plot. Sigma Plot was used to perform Student's t-tests for reported P values.
Full thickness surgical wounds were created on the dorsum of BALB/cJ mice as described in Methods. Wounds were made on day 0. Subsequently, the wounds were treated with exogenous injections of HSP70, HSP90, gp96 (30 μg/dose) or buffer administered subcutaneously (SC) on days 0, 2, 4 and 6 following surgery (FIG. 6A). The wounds were measured on days 0, 2, 4, 6, 9, 11 unless otherwise noted. Wounds were measured serially, percent wound closure was calculated and plotted against time in order to quantitate the rate of healing by secondary intention. […] Data is plotted as average percent wound closure ±SEM on days indicated. Two mice from each treatment group (PBS (n=12), HSP70 (n=11), HSP90 (n=12), and gp96 (n=11)) were sacrificed for histology on days 2, 4, and 6 post-surgery (data not shown). The P values obtain using the Student's t-test.
Results are of average percent wound closure ±SEM on day 2 post surgery. The *P values were obtained using the Student's t-test by comparing HSP treatment to all of the non-HSP control treatments. The least significant P value was reported. […] Doses higher than 50 μg/dose were not tested.

Assay [5] concerns the target Toll-like receptor-7 (TLR7) (murine) (UniProt P58681). Put plainly: cell-based or functional assay.
The test system of a further assay is TNF-α. Briefly: Wound lysate cytokine production (cytometric bead assay), TNF-α. Format: in vivo, mice. To be noted: SC 30 μg dose. The procedure: Wound and Skin Lysate Cytokine Production. Mice were wounded and treated as stated previously. Wounds were harvested 24 hours after treatment, pulverized in 5 ml of PBS and large debris was removed by straining the wound lysate through a […] mesh strainer. The soluble fraction was then centrifuged for 20 minutes at 14,000 rpm. Protein concentration was then assessed by Bradford assay. Skin samples were taken and processed in the same manner. 250 μg of each sample was then tested for the presence of monocyte chemotactic peptide-1 (MCP-1), tumor necrosis factor-α (TNF-α), and interleukin 6 (IL-6) using the BD Biosciences cytometric bead assay (CBA) mouse inflammatory kit (BD Biosciences Pharmingen, San Diego, and CA.) following the manufacture's protocol.
The wounds were lysed and MCP-1, TNFα and IL-6 levels were quantified (pg/ml of 250 μg of protein). Each sample was tested in duplicate. *P values are the significant difference of cytokines found in wound lysate compared to skin lysate in a treatment group. **P values are the significant differences of cytokines found in PBS treated mice wound lysate compared to the treatment group wound lysate.

Sequence of Toll-like receptor-7 (TLR7) (murine) (P58681 27-1050): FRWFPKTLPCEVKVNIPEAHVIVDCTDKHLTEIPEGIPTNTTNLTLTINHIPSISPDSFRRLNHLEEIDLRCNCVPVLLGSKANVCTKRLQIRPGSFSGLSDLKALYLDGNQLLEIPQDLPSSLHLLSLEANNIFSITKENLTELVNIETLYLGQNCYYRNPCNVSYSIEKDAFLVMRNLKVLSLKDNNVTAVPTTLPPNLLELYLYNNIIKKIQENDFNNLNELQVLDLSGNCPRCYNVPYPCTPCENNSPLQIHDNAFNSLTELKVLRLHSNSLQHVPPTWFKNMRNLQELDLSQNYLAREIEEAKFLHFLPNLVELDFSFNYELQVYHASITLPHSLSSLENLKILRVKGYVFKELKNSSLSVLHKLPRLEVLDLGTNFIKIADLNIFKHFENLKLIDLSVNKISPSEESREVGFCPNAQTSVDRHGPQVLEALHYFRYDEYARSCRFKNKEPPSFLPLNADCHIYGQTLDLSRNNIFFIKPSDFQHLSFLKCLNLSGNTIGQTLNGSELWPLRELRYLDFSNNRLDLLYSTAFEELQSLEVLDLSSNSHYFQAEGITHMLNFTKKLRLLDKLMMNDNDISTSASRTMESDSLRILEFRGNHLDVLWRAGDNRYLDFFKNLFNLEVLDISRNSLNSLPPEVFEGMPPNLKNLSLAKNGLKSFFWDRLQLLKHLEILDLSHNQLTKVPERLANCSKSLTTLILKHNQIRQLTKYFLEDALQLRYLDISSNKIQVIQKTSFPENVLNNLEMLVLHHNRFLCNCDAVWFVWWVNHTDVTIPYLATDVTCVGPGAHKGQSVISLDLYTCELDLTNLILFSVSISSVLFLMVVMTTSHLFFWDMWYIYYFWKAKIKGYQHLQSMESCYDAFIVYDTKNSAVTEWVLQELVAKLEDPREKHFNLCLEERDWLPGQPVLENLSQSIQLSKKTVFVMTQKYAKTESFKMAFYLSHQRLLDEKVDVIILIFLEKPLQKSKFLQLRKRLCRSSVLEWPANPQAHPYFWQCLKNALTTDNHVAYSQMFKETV

In the case of “lipopolysaccharide [LPS, reference compound]”, the “mean fluorescence intensity compared to medium control” value in the assay with RAW 264.7 macrophages was “not significantly different to the medium control”. Further, the “wound healing on day 2 after adoptive transfer of pre-treated macrophages” value in assay [1] turned out to be 21%. In assay [2], the “stimulation of macrophages (TNF-α release)” value was “ineffective at stimulating macrophages”. For the same molecule, the “ability to enhance phagocytosis” value in assay [3] (serum-free conditions, 1 hour, HSP70 100 μg/ml, LPS 25 ng-1 μg/ml, heating 100° C. for 20 minutes) is listed as “unable to enhance phagocytosis in serum-free conditions”. Further, the “wound healing on day 2” value in assay [4] (30 μg/dose, day 2 post surgery) came to 25%. The “wound closure of non-HSP controls compared to PBS control” value in assay [4] (day 2 post surgery) is recorded as “not significantly different to the PBS control”. Also, in assay [4] (same doses as HSPs and significantly smaller quantities), the “benefit to the wounds” value was “not beneficial to the wounds at any of the doses tested”.

With “HSP70 purified from murine livers (from UniProt P17879 2-642)”, the decrease in phagocytic activity of RAW264.7 cells treated with HSP70 in the presence of known TLR7-ligands, compared with HSP70 alone in assay [5] fell in the range of 45 to 65%.

B1: gp96: heat shock protein (HSP90 family, endoplasmic reticulum) purified from murine livers (protein, UniProt P08113 22-802, looked up)
Endoplasmin: DDEVDVDGTVEEDLGKSREGSRTDDEVVQREEEAIQLDGLNASQIRELREKSEKFAFQAEVNRMMKLIINSLYKNKEIFLRELISNASDALDKIRLISLTDENALAGNEELTVKIKCDKEKNLLHVTDTGVGMTREELVKNLGTIAKSGTSEFLNKMTEAQEDGQSTSELIGQFGVGFYSAFLVADKVIVTSKHNNDTQHIWESDSNEFSVIADPRGNTLGRGTTITLVLKEEASDYLELDTIKNLVRKYSQFINFPIYVWSSKTETVEEPLEEDEAAKEEKEESDDEAAVEEEEEEKKPKTKKVEKTVWDWELMNDIKPIWQRPSKEVEEDEYKAFYKSFSKESDDPMAYIHFTAEGEVTFKSILFVPTSAPRGLFDEYGSKKSDYIKLYVRRVFITDDFHDMMPKYLNFVKGVVDSDDLPLNVSRETLQQHKLLKVIRKKLVRKTLDMIKKIADEKYNDTFWKEFGTNIKLGVIEDHSNRTRLAKLLRFQSSHHSTDITSLDQYVERMKEKQDKIYFMAGSSRKEAESSPFVERLLKKGYEVIYLTEPVDEYCIQALPEFDGKRFQNVAKEGVKFDESEKTKESREATEKEFEPLLNWMKDKALKDKIEKAVVSQRLTESPCALVASQYGWSGNMERIMKAQAYQTGKDISTNYYASQKKTFEINPRHPLIRDMLRRIKEDEDDKTVMDLAVVLFETATLRSGYLLPDTKAYGDRIERMLRLSLNIDPEAQVEEEPEEEPEDTSEDAEDSEQDEGEEMDAGTEEEEEETEKESTEKDEL
modifications: complexed with endogenous peptides
notes: heat shock protein (HSP90 family, endoplasmic reticulum) purified from murine livers
Consider B1, for which, in the assay with TNF-α, the “TNF-α content of wounds compared to LPS or MSA” value is listed as “not significantly elevated” and the “TNF-α content of wounds compared to buffer group” value is “significantly increased”. Besides, in assay [3] (HSPs 100 μg/ml, P<0.01 vs medium alone), the “uptake of microbial or non-microbial materials as compared to control proteins or buffer” value was “increase in uptake”. Moreover, the “wound closure compared to controls” value in assay [4] (5 μg/dose and 50 μg/dose, day 2) is “significant wound closure”. Besides, the “wound healing at Day 11” value in assay [4] (30 μg/dose SC on days 0, 2, 4 and 6) is listed as “completely healed”. In addition, the “dose with the most significant difference in wound closure” value in assay [4] (doses 5, 30, 50 μg/dose tested) is listed as 30 μg/dose.
